Test results: patent US20020137929A1, “1 - (3-heterocyclylphenyl) isothiourea, -isourea, -guanidine and -amidine herbicidal agents” (Intellectual Property Department, BASF Aktiengesellschaft, priority 1998, published 2002)

Key:
[1] = system: TRZAWR (Wheat, Winter, cv Riband); experiment: Preemergence herbicidal evaluation; assay type: in vivo, Triticum aestivum; settings: preemergence, rated 4-5 weeks after treatment, 0-9 scale
Outline: (§1)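 Visual 0-9 rating vs control (stand, vigor, malformation, size, chlorosis, overall appearance), scored 4-5 wk after spraying. Seeded soil cups were treated preemergence with compound in aqueous acetone, ~0.0156-0.500 kg/ha equivalent.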

[2] = system: IPOHE (Morningglory, Ivyleaf); experiment: Preemergence herbicidal evaluation; assay type: in vivo, Ipomoea hederacea; settings: preemergence, rated 4-5 weeks after treatment, 0-9 scale
Outline: as §1

[3] = system: CYPSE (Flatsedge); experiment: Preemergence weed control under flooded paddy conditions; assay type: in vivo, Cyperus serotinus; settings: rated 3-4 weeks after treatment
Outline: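 Flooded-pot preemergence screen with silt loam and seeds in the upper 0.5 cm. Dose about 0.0313 to 0.500 kg/ha, delivered into flood water; visual 0-9 score after 3 to 4 weeks.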

[4] = system: CHEAL (Lambsquarters, Common); experiment: Preemergence herbicidal evaluation; assay type: in vivo, Chenopodium album; settings: preemergence, rated 4-5 weeks after treatment, 0-9 scale
Outline: as §1

[5] = system: ZEAMX (Corn, Field); experiment: Preemergence herbicidal evaluation; assay type: in vivo, Zea mays; settings: preemergence, rated 4-5 weeks after treatment, 0-9 scale
Outline: as §1

[6] = system: CYPIR (Rice Flatsedge); experiment: Preemergence weed control under flooded paddy conditions; assay type: in vivo, Cyperus iria; settings: rated 3-4 weeks after treatment
Outline: (§2)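 Ratings on a 0-9 visual scale cover stand, vigor, malformation, size, chlorosis and overall appearance relative to a control, taken three to four weeks post-treatment. Application was into flood water over freshly sown silt loam at roughly 0.0313 to 0.500 kg/ha.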

[7] = system: ECHORC (Watergrass (Calif.)); experiment: Postemergence weed control under flooded paddy conditions; assay type: in vivo, Echinochloa oryzoides; settings: postemergence weeds, rated 3 to 4 weeks after treatment
Outline: (§3)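 Flood-water application, about 0.0313–0.500 kg/ha a.i. in aqueous/acetone 50/50 v/v; water depth 1.5–3 cm throughout. Weeds 3–5 cm, rice 1.5–2.5 leaf. Greenhouse; 0–9 visual rating vs control at 3–4 wk.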

[8] = system: CASOB (Sicklepod); experiment: Postemergence herbicidal evaluation; assay type: in vivo, Cassia obtusifolia; settings: postemergence
Outline: (§4)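 Young plants, roughly two weeks from seeding, receive the active ingredient as a sprayed dispersion (acetone/water 50/50, 0.5% TWEEN 20) at 40 psi. Doses span about 0.0156 to 0.500 kg/ha. A visual score from 0 to 9 compares treated with control plants four to five weeks on.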

[9] = system: AMBEL (Ragweed, Common); experiment: Preemergence herbicidal evaluation; assay type: in vivo, Ambrosia artemisifolia; settings: preemergence, rated 4-5 weeks after treatment, 0-9 scale
Outline: as §1

[10] = system: GALAP (Galium); experiment: Postemergence herbicidal evaluation; assay type: in vivo, Galium aparine; settings: postemergence
Outline: as §4

[11] = system: ZEAMX (Corn, Field); experiment: Postemergence herbicidal evaluation; assay type: in vivo, Zea mays; settings: postemergence
Outline: as §4

[12] = system: CYPSE (Flatsedge); experiment: Postemergence weed control under flooded paddy conditions; assay type: in vivo, Cyperus serotinus; settings: postemergence weeds, rated 3 to 4 weeks after treatment
Outline: as §3

[13] = system: ECHORC (Watergrass (Calif.)); experiment: Preemergence weed control under flooded paddy conditions; assay type: in vivo, Echinochloa oryzoides; settings: rated 3-4 weeks after treatment
Outline: as §2

[14] = system: ORYSAT (Rice, Tebonnet); experiment: Preemergence herbicidal evaluation; assay type: in vivo, Oryza sativa, (L.) Tebonnet; settings: preemergence, rated 4-5 weeks after treatment, 0-9 scale
Outline: as §1

`C=CCN1C(=O)C(CC(=O)OCCF)SC1=Nc1cc(-n2c(=O)cc(C(F)(F)F)n(C)c2=O)c(F)cc1Cl` (centres unmarked) [Compound 86, 2-Fluoroethyl 3-allyl-2-{{2-chloro-5-[3,6-dihydro-3-methyl-2,6-dioxo-4-(trifluoromethyl)-1(2H)-pyrimidinyl]-4-fluorophenyl}imino}-4-oxo-5-thiazolidineacetate] gave a TRZAWR rating ([1]; 0.0156 kg/ha) of 0.0, a TRZAWR rating ([1]; 0.0313 kg/ha) of 0.0 and a TRZAWR rating ([1]; 0.0625 kg/ha) of 0.0. For the same compound, the TRZAWR rating ([1]; 0.1250 kg/ha) was 0.0, the TRZAWR rating ([1]; 0.2500 kg/ha) was 2.0 and the TRZAWR rating ([1]; 0.5000 kg/ha) was 6.0. It also gave an IPOHE rating ([2]; 0.0156 kg/ha) of 0.0, an IPOHE rating ([2]; 0.0313 kg/ha) of 0.0 and an IPOHE rating ([2]; 0.0625 kg/ha) of 8.0. It also gave an IPOHE rating ([2]; 0.1250 kg/ha) of 9.0, an IPOHE rating ([2]; 0.2500 kg/ha) of 9.0 and an IPOHE rating ([2]; 0.5000 kg/ha) of 9.0. The “CYPSE herbicidal effect rating” value ([3]; 0.0313 kg/ha) was 0.0, the “CYPSE herbicidal effect rating” value ([3]; 0.0625 kg/ha) was 0.0 and the “CYPSE herbicidal effect rating” value ([3]; 0.1250 kg/ha) was 3.0. The “CYPSE herbicidal effect rating” value ([3]; 0.2500 kg/ha) was 9.0, the CHEAL rating ([4]; 0.0156 kg/ha) was 4.0 and the CHEAL rating ([4]; 0.0313 kg/ha) was 4.0. The CHEAL rating ([4]; 0.0625 kg/ha) was 9.0, the CHEAL rating ([4]; 0.1250 kg/ha) was 9.0 and the CHEAL rating ([4]; 0.2500 kg/ha) was 9.0. For the same compound, the CHEAL rating ([4]; 0.5000 kg/ha) was 9.0, the ZEAMX rating ([5]; 0.0156 kg/ha) was 0.0 and the ZEAMX rating ([5]; 0.0313 kg/ha) was 0.0. The ZEAMX rating ([5]; 0.0625 kg/ha) was 0.0, the ZEAMX rating ([5]; 0.1250 kg/ha) was 0.0 and the ZEAMX rating ([5]; 0.2500 kg/ha) was 4.0. For the same compound, the ZEAMX rating ([5]; 0.5000 kg/ha) was 9.0, the “CYPIR herbicidal effect rating” value ([6]; 0.0313 kg/ha) was 3.0 and the “CYPIR herbicidal effect rating” value ([6]; 0.0625 kg/ha) was 7.0. The “CYPIR herbicidal effect rating” value ([6]; 0.1250 kg/ha) was 8.0, the “CYPIR herbicidal effect rating” value ([6]; 0.2500 kg/ha) was 9.0 and the “Herbicidal rating ECHORC” value ([7]; Rate 0.0313 kg/ha) was 5.0. The “Herbicidal rating ECHORC” value ([7]; Rate 0.0625 kg/ha) was 6.0, the “Herbicidal rating ECHORC” value ([7]; Rate 0.1250 kg/ha) was 9.0 and the “Herbicidal rating ECHORC” value ([7]; Rate 0.2500 kg/ha) was 9.0. The CASOB herbicidal rating ([8]; rate 0.0156 kg/ha) was 1.0, the CASOB herbicidal rating ([8]; rate 0.0313 kg/ha) was 2.0 and the CASOB herbicidal rating ([8]; rate 0.0625 kg/ha) was 7.0. For the same compound, the CASOB herbicidal rating ([8]; rate 0.1250 kg/ha) was 9.0, the AMBEL rating ([9]; 0.0156 kg/ha) was 0.0 and the AMBEL rating ([9]; 0.0313 kg/ha) was 0.0. It also gave an AMBEL rating ([9]; 0.0625 kg/ha) of 6.0, an AMBEL rating ([9]; 0.1250 kg/ha) of 9.0 and an AMBEL rating ([9]; 0.2500 kg/ha) of 9.0. The AMBEL rating ([9]; 0.5000 kg/ha) was 9.0, the GALAP herbicidal rating ([10]; rate 0.0156 kg/ha) was 2.0 and the GALAP herbicidal rating ([10]; rate 0.0313 kg/ha) was 5.0. For the same compound, the GALAP herbicidal rating ([10]; rate 0.0625 kg/ha) was 9.0, the GALAP herbicidal rating ([10]; rate 0.1250 kg/ha) was 9.0 and the ZEAMX herbicidal rating ([11]; rate 0.0156 kg/ha) was 7.5. It also gave a ZEAMX herbicidal rating ([11]; rate 0.0313 kg/ha) of 8.0, a ZEAMX herbicidal rating ([11]; rate 0.0625 kg/ha) of 8.5 and a ZEAMX herbicidal rating ([11]; rate 0.1250 kg/ha) of 9.0. The “Herbicidal rating CYPSE” value ([12]; Rate 0.0313 kg/ha) was 0.0, the “Herbicidal rating CYPSE” value ([12]; Rate 0.0625 kg/ha) was 0.0 and the “Herbicidal rating CYPSE” value ([12]; Rate 0.1250 kg/ha) was 3.0. The “Herbicidal rating CYPSE” value ([12]; Rate 0.2500 kg/ha) was 9.0, the “ECHORC herbicidal effect rating” value ([13]; 0.0313 kg/ha) was 5.0 and the “ECHORC herbicidal effect rating” value ([13]; 0.0625 kg/ha) was 6.0. For the same compound, the “ECHORC herbicidal effect rating” value ([13]; 0.1250 kg/ha) was 9.0, the “ECHORC herbicidal effect rating” value ([13]; 0.2500 kg/ha) was 9.0 and the ORYSAT rating ([14]; 0.0156 kg/ha) was 0.0. It also gave an ORYSAT rating ([14]; 0.0313 kg/ha) of 0.0, an ORYSAT rating ([14]; 0.0625 kg/ha) of 0.0 and an ORYSAT rating ([14]; 0.1250 kg/ha) of 0.0. It also gave an ORYSAT rating ([14]; 0.2500 kg/ha) of 2.0 and an ORYSAT rating ([14]; 0.5000 kg/ha) of 6.0.
